Tests used:
4T1 cells [1] = assay: Detection of ROS production (CellROX Green, confocal); assay type: cell-based, murine; settings: 100 μM, positive control
Method: To measure the potential oxidative stress in living cells, as a consequence of the presence of the BMNPs, CelIROX® Green Reagent (ThermoFisher) was used following the protocol recommended by the manufacturer. Briefly, cells (approximately 20×10^3 4T1/well) were seeded on glass coverslips in 24-well plates. After their exposure to different concentrations (0.1, 1, 10, 100 μg/mL), in the presence and absence of a gradient magnetic field, of BMNPs for 4 hours, the cells were washed with PBS and CelIROX® Green Reagent was added to a final concentration of 5 μM in 300 μl of DMEM medium without serum. Then, the plate was incubated in the dark at 37° C. for 30 minutes. Menadione (100 μM) was used as a positive control. After the incubation time, the coverslips were washed with PBS pH 7.2, fixed with 4% paraformaldehyde in PBS, washed again and permeabilized with 0.1% Triton-X100 for 10 minutes. Finally, the coverslips were stained and mounted on specimen slides (Biosigma). […] Therefore, the emission of green fluorescence (at 485/520 nm) is stable and is produced after the DNA binding, and therefore its signal is mainly located in the nucleus and in the mitochondria. Fluorescence was detected using a Spectral Confocal Leica TCS SP2 AOBS microscope. […]

4T1 cells [2] = assay: Confocal analysis of DOXO internalization; assay type: cell-based, murine; settings: soluble drug, positive control
Method: Cells (approximately 20×10^3 4T1/well) were seeded on glass coverslips in 24-well plates and, after 24 h, soluble DOXO (as a positive control) or DOXO-BMNP suspensions were added. After incubation at 37° C. for different periods of time (30 seconds, 5 and 30 minutes) in the absence (−GMF) and in the presence (+GMF) of a gradient magnetic field, coverslips were washed with fresh PBS pH 7.2 and fixed with paraformaldehyde (2% wt in PBS). To minimize unspecific interactions and permeabilize cells, coverslips were washed with Tris-Buffered Saline (TBS) containing 5% Bovine Serum Albumin (BSA), 0.1% Triton X-100 and 5% got serum and then stained. In particular cytoskeletal actin microfilaments were stained with FITC-phalloidin (Sigma-Aldrich, excitation at 488 nm; emission at 500-535 nm) and nuclei were stained with TO-PRO-3 (1/70, Life Technologies; excitation at 633 nm; emission at 650-750 nm). DOXO was detected after excitation at 476 nm and emission at 575-630 nm. Fluorescence was detected using a Leica TCS SP2 AOBS Spectral Confocal Scanner microscope. Images were taken at 400× magnification. ImageJ software was used for analysis.

4T1 tumors = assay: In vivo magnetic targeting and antitumor activity; design: species or system BALB/c mice; settings: day 15, 2 mg/kg DOXO i.v. x5
Excerpt: Female BALB/c mice were inoculated with 10^5 4T1 cells into a mammary gland fat pad. […] The 6 groups were intravenously injected and treated as follows: i) PBS (control), ii-iii) DOXO-BMNPs +/−gradient magnetic field, iv-v) BMNPs +/−gradient magnetic field, and vi) soluble DOXO. […] The magnetic field was applied by attaching a 10 mm in diameter×3 mm thick N42 neodymium magnet (1.8 kg pull, Magnet Expert Ltd) with 3MTM Vetbond™ tissue adhesive on the tumor site and keeping it attached for 1 hour after the injection. This neodymium magnet, with a magnetic anisotropy normal to the plane and a saturation magnetization of 800 emu/cc, could generate a direct current (d.c.) magnetic field of the order of 100 Oe a few millimeters from the surface. Therefore, the effect of the magnet is equivalent to the application of a local 100-Oe external d.c. magnetic field immediately after the administration of the nanoparticles. Throughout the study, body weight and tumor volumes (measured with caliper) were recorded every 3-4 days. Three days after the last injections (day 18), mice were euthanized, their weights, as well as, tumor weights were recorded and, then, tumors, hearts, livers, spleens, brains, lungs, and kidneys were collected for histology. Histological sections of the tumors were prepared for hematoxylin-eosin and Prussian blue staining to analyze particle biodistribution.

ROS release (4T1 cells [1])	Compound	internalization of DOXO in cell nuclei (confocal) (4T1 cells [2])	tumor volume (4T1 tumors)
clearly visible	CC1=CC(=O)c2ccccc2C1=O [Menadione]		
	COc1cccc2c1C(=O)c1c(O)c3c(c(O)c1C2=O)C[C@@](O)(C(=O)CO)C[C@@H]3O[C@H]1C[C@H](N)[C@H](O)[C@H](C)O1 [soluble DOXO, doxorubicin]	detected only after 5 min	significantly reduced

Reference: patent US20220143212A1, “MAMC-MEDIATED BIOMIMETIC NANOPARTICLES” (UNIVERSIDAD DE GRANADA, priority 2018, published 2022)
